Test results taken from patent US20100172854A1, “ANTIBACTERIAL FORMULATIONS” (priority 2007, published 2010).
In brackets after ≈: the same amount, converted by molar mass.

What was measured:
Type in all cases: cell-based
[1] = system: Propionibacterium acnes NCTC 737; assay: MIC assay; details: Cutibacterium acnes, NCTC737; P. acnes NCTC 737
Experimental: (§1) The propionibacteria were cultured and maintained on Wilkins-Chalgren Anaerobe Medium (agar and broth) at pH 6.0; all cultures were incubated anaerobically at 37° C. for 72 hours.
(§2) This is a standard international method for quantitatively assessing the antimicrobial activity of a compound in a liquid medium. The method used a sterile 96-well microtitre plate, capable of holding about 200 μl of liquid per well. The wells contained liquid culture medium and ranges of decreasing concentrations of the relevant test compound in doubling dilutions (e.g. 1000, 500, 250, 125 . . . μg/ml, etc. down to 0.49 μg/ml). The culture media were as described above.
(§3) The wells were inoculated with a liquid suspension of freshly grown micro-organism and incubated under the conditions described above. After incubation, the microtitre plate was examined visually (with the aid of a light box) for cloudiness in each well, which would indicate microbial growth. The MIC value was recorded as the lowest concentration of test compound required to inhibit microbial growth, i.e. the lowest concentration for which the liquid in the well remained clear.
(§4) The assays included both negative (culture medium with no micro-organisms) and positive (culture medium plus diluting solvent plus micro-organism) controls.

[2] = system: Propionibacterium acnes NCTC 737; assay: MBC assay; details: P. acnes NCTC 737; for MBC: Cutibacterium acnes, NCTC737
Experimental: as §1
(§5) This assay, normally carried out after an MIC assay, determines the minimum concentration of a compound that is lethal to the micro-organism being tested.
(§6) These samples were then individually sub-cultured on antibiotic-free agar medium, under the incubation conditions described above. Following incubation they were examined visually for microbial growth.

[3] = system: Staphylococcus aureus ATCC 29213; assay: MIC assay; details: ATCC29213, S. aureus ATCC 29213
Experimental: (§7) The staphylococci were cultured and maintained on Mueller-Hinton Medium (agar and broth) at pH 7.2; cultures were incubated aerobically at 37° C. for 19-20 hours.
as §2, §3, §4

[4] = system: Staphylococcus aureus ATCC 29213; assay: MBC assay; details: S. aureus ATCC 29213; for MBC: Staphylococcus aureus, ATCC29213
Experimental: as §7, §5, §6

[5] = system: Actinomyces naeslundii ATCC 12104; assay: MIC assay; details: ATCC12104, read-out: MIC
Experimental: as §2, §3, §4

[6] = system: Bacillus cereus ATCC 11778; assay: MIC assay; details: ATCC11778, read-out: MIC
Experimental: as §2, §3, §4

[7] = system: Clostridium difficile ATCC 7000057; assay: MIC assay; details: Clostridioides difficile, ATCC7000057
Experimental: as §2, §3, §4

[8] = system: Clostridium sporogenes ATCC 3584; assay: MIC assay; details: ATCC3584
Experimental: as §2, §3, §4

[9] = system: Corynebacterium mucifaciens ATCC 700355; assay: MIC assay; details: C. mucifaciens ATCC 700355
Experimental: as §2, §3, §4

[10] = system: Enterococcus faecalis ATCC 29212; assay: MIC assay; details: E. faecalis ATCC 29212
Experimental: as §2, §3, §4

[11] = system: Gardnerella vaginalis ATCC 14018; assay: MIC assay; details: ATCC14018
Experimental: as §2, §3, §4

[12] = system: Listeria monocytogenes ATCC 15313; assay: MIC assay; details: ATCC15313, read-out: MIC
Experimental: as §2, §3, §4

[13] = system: Prevotella nigrescens ATCC 33563; assay: MIC assay; details: ATCC33563
Experimental: as §2, §3, §4

[14] = system: Streptococcus pyogenes ATCC 12344; assay: MIC assay; details: S. pyogenes ATCC 12344
Experimental: as §2, §3, §4

[15] = system: Streptococcus sobrinus ATCC 33478; assay: MIC assay; details: ATCC33478
Experimental: as §2, §3, §4

[16] = system: Actinomyces naeslundii ATCC 12104; assay: MBC assay
Experimental: as §5, §6

[17] = system: Bacillus cereus ATCC 11778; assay: MBC assay
Experimental: as §5, §6

[18] = system: Clostridium difficile ATCC 7000057; assay: MBC assay
Experimental: as §5, §6

[19] = system: Clostridium sporogenes ATCC 3584; assay: MBC assay
Experimental: as §5, §6

[20] = system: Gardnerella vaginalis ATCC 14018; assay: MBC assay
Experimental: as §5, §6

[21] = system: Listeria monocytogenes ATCC 15313; assay: MBC assay
Experimental: as §5, §6

[22] = system: Prevotella nigrescens ATCC 33563; assay: MBC assay
Experimental: as §5, §6

[23] = system: Streptococcus sobrinus ATCC 33478; assay: MBC assay
Experimental: as §5, §6

[24] = system: Porphyromonas gingivalis ATCC 53978; assay: MIC assay; details: ATCC53978
Experimental: (§8) The P. gingivalis strains were cultured and maintained on Wilkins-Chalgren Anaerobe Medium (agar and broth) at pH 7.0; all cultures were incubated anaerobically at 37° C. for 5-7 days.
as §2, §3, §4

[25] = system: Porphyromonas gingivalis ATCC BAA-308; assay: MIC assay; details: ATCCBAA308
Experimental: as §8, §2, §3, §4

[26] = system: Porphyromonas gingivalis NCTC 11834; assay: MIC assay; details: NCTC11834
Experimental: as §8, §2, §3, §4

[27] = system: Porphyromonas gingivalis ATCC 53978; assay: MBC assay
Experimental: as §8, §5, §6

[28] = system: Porphyromonas gingivalis ATCC BAA-308; assay: MBC assay
Experimental: as §8, §5, §6

[29] = system: Porphyromonas gingivalis NCTC 11834; assay: MBC assay
Experimental: as §8, §5, §6

[30] = system: Streptococcus mutans ATCC 25175; assay: MIC assay; details: ATCC25175
Experimental: (§9) The S. mutans strains were cultured and maintained on Wilkins-Chalgren Anaerobe Medium (agar and broth) at pH 7.0 supplemented with 1 g/L glucose; all cultures were incubated at 37° C. for 48 h in an atmosphere containing 5% CO2.
as §2, §3, §4

[31] = system: Streptococcus mutans ATCC 35668; assay: MIC assay; details: ATCC35668
Experimental: as §9, §2, §3, §4

[32] = system: Streptococcus mutans ATCC 25175; assay: MBC assay
Experimental: as §9, §5, §6

[33] = system: Streptococcus mutans ATCC 35668; assay: MBC assay
Experimental: as §9, §5, §6

Question: With `CC(c1cc(C(C)(C)C)cc(C(C)(C)C)c1O)c1cc(C(C)(C)C)cc(C(C)(C)C)c1O` [2,2′-ethylidene-bis(4,6-di-tert-butylphenol), reference compound] as the compound, how does the MIC [1] read?
Answer: Its MIC is greater than 250 µg/mL.

Question: And the MBC [2]?
Answer: The MBC was greater than 250 µg/mL.

Question: What about the MIC [3] of the same compound?
Answer: The MIC was greater than 250 µg/mL.

Question: What about the MBC [4] of the same compound?
Answer: The MBC was greater than 250 µg/mL.

Question: `CC(C)(C)c1cc(Cc2cc(C(C)(C)C)c(O)c(C(C)(C)C)c2)cc(C(C)(C)C)c1O` [4,4′-methylenebis(2,6-di-tert-butylphenol), reference compound] was tested. Which MIC [1] did it give?
Answer: The MIC was greater than 250 µg/mL.

Question: And the MBC [2]?
Answer: Its MBC is greater than 250 µg/mL.

Question: What about the MIC [3] of the same compound?
Answer: The MIC was greater than 250 µg/mL.

Question: What about the MBC [4] of the same compound?
Answer: The MBC was greater than 250 µg/mL.

Question: For `CCc1cc(Cc2cc(CC)cc(C(C)(C)C)c2O)c(O)c(C(C)(C)C)c1` [AO 425, 2,2′-methylene-bis(4-ethyl-6-tert-butylphenol)], which MIC [1] is on record?
Answer: Its MIC is 7.8 µg/mL (≈ 21.2 µM).

Question: And the MBC [2]?
Answer: Its MBC is 31.2 µg/mL (≈ 84.8 µM).

Question: And the MIC/MBC Ratio [2]?
Answer: Its MIC/MBC Ratio is 0.25.

Question: And the MIC [3]?
Answer: The MIC was 7.8 µg/mL (≈ 21.2 µM).

Question: And the MIC/MBC Ratio [4]?
Answer: Its MIC/MBC Ratio is 0.125.

Question: What about the MBC [4] of the same compound?
Answer: The MBC was 62.5 µg/mL (≈ 170 µM).

Question: And the MIC [5]?
Answer: The MIC was 0.98 µg/mL (≈ 2.66 µM).

Question: And the MIC [6]?
Answer: The MIC was 1.95 µg/mL (≈ 5.29 µM).

Question: What about the MIC [7] of the same compound?
Answer: The MIC was 7.8 µg/mL (≈ 21.2 µM).

Question: And the MIC [8]?
Answer: Its MIC is 3.9 µg/mL (≈ 10.6 µM).

Question: What about the “activity compared with AO 2246” value [9] of the same compound?
Answer: The value was “significantly lower activity”.

Question: What about the “activity compared with AO 2246” value [10] of the same compound?
Answer: Its value is “significantly lower activity”.

Question: What about the MIC [11] of the same compound?
Answer: Its MIC is 15.6 µg/mL (≈ 42.3 µM).

Question: What about the MIC [12] of the same compound?
Answer: The MIC was 0.98 µg/mL (≈ 2.66 µM).

Question: What about the MIC [13] of the same compound?
Answer: The MIC was 15.6 µg/mL (≈ 42.3 µM).

Question: What about the “activity compared with AO 2246” value [14] of the same compound?
Answer: Its value is “significantly lower activity”.

Question: And the MIC [15]?
Answer: The MIC was 31.2 µg/mL (≈ 84.8 µM).

Question: And the “MIC/MBC Ratio” value [16]?
Answer: The value was 0.25.

Question: What about the MBC ([16]; ATCC12104) of the same compound?
Answer: The MBC was 3.9 µg/mL (≈ 10.6 µM).

Question: And the “MIC/MBC Ratio” value [17]?
Answer: The value was 0.5.

Question: And the MBC ([17]; ATCC11778)?
Answer: Its MBC is 3.9 µg/mL (≈ 10.6 µM).

Question: And the “MIC/MBC Ratio” value [18]?
Answer: Its value is 1.

Question: And the MBC ([18]; Clostridioides difficile, ATCC7000057)?
Answer: The MBC was 7.8 µg/mL (≈ 21.2 µM).

Question: And the “MIC/MBC Ratio” value [19]?
Answer: Its value is 0.5.

Question: And the MBC ([19]; ATCC3584)?
Answer: Its MBC is 7.8 µg/mL (≈ 21.2 µM).

Question: And the “MIC/MBC Ratio” value [20]?
Answer: The value was 0.5.

Question: And the MBC ([20]; ATCC14018)?
Answer: Its MBC is 31.2 µg/mL (≈ 84.8 µM).

Question: And the “MIC/MBC Ratio” value [21]?
Answer: Its value is 0.125.

Question: And the MBC ([21]; ATCC15313)?
Answer: The MBC was 7.8 µg/mL (≈ 21.2 µM).

Question: And the “MIC/MBC Ratio” value [22]?
Answer: Its value is less than 1.

Question: And the MBC ([22]; ATCC33563)?
Answer: The MBC was greater than 15.6 µg/mL.

Question: What about the “MIC/MBC Ratio” value [23] of the same compound?
Answer: Its value is 0.5.

Question: And the MBC ([23]; ATCC33478)?
Answer: Its MBC is 62.5 µg/mL (≈ 170 µM).

Question: And the MIC [24]?
Answer: Its MIC is 0.98 µg/mL (≈ 2.66 µM).

Question: What about the MIC [25] of the same compound?
Answer: Its MIC is 1.95 µg/mL (≈ 5.29 µM).

Question: What about the MIC [26] of the same compound?
Answer: The MIC was 1.95 µg/mL (≈ 5.29 µM).

Question: And the “MIC/MBC Ratio” value [27]?
Answer: The value was 1.

Question: And the MBC ([27]; ATCC53978, read-out: MBC)?
Answer: The MBC was 0.98 µg/mL (≈ 2.66 µM).

Question: And the “MIC/MBC Ratio” value [28]?
Answer: Its value is 0.5.

Question: And the MBC ([28]; ATCCBAA308)?
Answer: The MBC was 3.9 µg/mL (≈ 10.6 µM).

Question: What about the “MIC/MBC Ratio” value [29] of the same compound?
Answer: The value was 1.

Question: What about the MBC ([29]; NCTC11834) of the same compound?
Answer: The MBC was 1.95 µg/mL (≈ 5.29 µM).

Question: And the MIC [30]?
Answer: Its MIC is 15.6 µg/mL (≈ 42.3 µM).

Question: And the MIC [31]?
Answer: The MIC was 7.8 µg/mL (≈ 21.2 µM).

Question: And the “MIC/MBC Ratio” value [32]?
Answer: Its value is 0.25.

Question: And the MBC ([32]; ATCC25175)?
Answer: Its MBC is 62.5 µg/mL (≈ 170 µM).

Question: And the “MIC/MBC Ratio” value [33]?
Answer: Its value is less than 0.03.

Question: What about the MBC ([33]; ATCC35668) of the same compound?
Answer: The MBC was greater than 250 µg/mL.
